These are literature values, as cited in US20090098202A1, “Extended Release Formulation” (BOEHRINGER INGELHEIM INTERNATIONAL GMBH, priority 2006, published 2009).

Structures can show the parent of a compound that is named as a salt.

The conditions of data set [1]: in the elderly.
Assay in data set [2]: not given
This is another data set of the same source.

Consider `CCCN[C@H]1CCc2nc(N)sc2C1` [Pramipexole, (S)-2-Amino-4,5,6,7-tetrahydro-6-(propylamino)benzothiazole], for which the “elimination half-life (t1/2[h])” value in data set [1] is 12 h. For the same compound, under “in solution, light”, the stability in solution entry is “light sensitive”. Moreover, under “solid state”, the “stability in the solid state” value is on record as “very stable”.
As for `CCCN[C@H]1CCc2nc(N)sc2C1` [Pramipexole dihydrochloride monohydrate, pramipexole dihydrochloride monohydrate], in data set [2] (between pH 2 and pH 7.4), the “solubility in buffer media” value is “above 10 mg/ml”. For the same compound, in data set [2] (water), the Water solubility result is given as “more than 20 mg/ml”.
